Test results taken from patent US20240043439A1, “COMPOUNDS AS C5AR INHIBITORS” (Kira Pharmaceuticals (Suzhou) Ltd., priority 2020, published 2024).

Target: C5aR (Homo sapiens (Human), UniProt P21730)
Test: Calcium mobilization (U937/C5aR or HEK293/C5aR cells, FLIPR)
Type: cell-based
Settings: agonist human C5a at EC80, FLIPR
Experimental: U937/C5aR cells or HEK293/C5aR cells were washed by PBS and suspended in growth media at the density of 1×10^6 cells/ml. […] to the 384-well plate and culture for overnight. Transfer 250 nl compound solution to the cell plate using Echo, incubate for 60 min. Cells were added with Fluo-4 Direct™ dye and incubate for 50 min at 37° C. 5% CO2 and 10 m at room temperature. Place the cell plate into […] (Molecular Devices). Transfer 10 μl of 5-fold EC80 concentrations of agonist human C5a to the cell plates.

Sequence of C5aR (P21730 whole entry): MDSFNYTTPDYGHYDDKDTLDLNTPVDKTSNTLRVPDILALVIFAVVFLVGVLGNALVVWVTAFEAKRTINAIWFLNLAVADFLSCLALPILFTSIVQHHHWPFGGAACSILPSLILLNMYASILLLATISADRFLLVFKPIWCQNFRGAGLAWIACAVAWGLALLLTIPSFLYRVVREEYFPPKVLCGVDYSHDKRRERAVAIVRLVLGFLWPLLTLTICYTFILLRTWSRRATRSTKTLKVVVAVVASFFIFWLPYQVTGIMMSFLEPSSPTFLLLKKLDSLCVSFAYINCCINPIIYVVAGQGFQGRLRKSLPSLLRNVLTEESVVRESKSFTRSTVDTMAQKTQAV

Row | IC50 [µM] | Compound
1 | 2 to 10 | Cc1ccc(NC(=O)[C@H]2CCCN(Cc3c(C)cccc3F)[C@H]2c2ccc(NC3CCCC3)cc2)cc1C(F)(F)F [Compound 159, (2R,3S)-2-(4-(cyclopentylamino)phenyl)-1-(2-fluoro-6-methylbenzyl)-N-(4-methyl-3-(trifluoromethyl)phenyl)piperidine-3-carboxamide]
2 | 2 to 10 | Cc1ccc(NC(=O)[C@H]2CCCN[C@H]2c2ccc(N(c3ncnc4cnccc34)C3CCCC3)cc2)cc1C(F)(F)F [Compound 178, (2R,3S)-2-(4-(cyclopentyl(pyrido[3,4-d]pyrimidin-4-yl)amino)phenyl)-N-(4-methyl-3-(trifluoromethyl)phenyl)piperidine-3-carboxamide]
3 | 2 to 10 | Cc1ccc(NC(=O)C2CC3CCCC3N(C(=O)c3c(C)cccc3F)C2c2ccc(NC3CCCC3)cc2)cc1C(F)(F)F (stereo in doubt) [Compound 48, (2S,3R,4aS,7aS)-2-(4-(cyclopentylamino)phenyl)-1-(2-fluoro-6-methylbenzoyl)-N-(4-methyl-3-(trifluoromethyl)phenyl)octahydro-1H-cyclopenta[b]pyridine-3-carboxamide]
4 | 2 to 10 | Cc1cccc(F)c1C(=O)N1[C@@H]2COC[C@@H]2CC(C(=O)Nc2cccnc2)[C@@H]1c1ccc(NC2CCOCC2)cc1 (mixture of isomers) [Compound 128, cis-1-(2-fluoro-6-methylbenzoyl)-N-(pyridin-3-yl)-2-(4-((tetrahydro-2H-pyran-4-yl)amino)phenyl)octahydrofuro[3,4-b]pyridine-3-carboxamide]
5 | 2 to 10 | Cc1ccc(NC(=O)[C@H]2CCCN[C@H]2c2ccc(N(c3nccc4nccnc34)C3CCCC3)cc2)cc1C(F)(F)F [Compound 172, (2R,3S)-2-(4-(cyclopentyl(pyrido[3,4-b]pyrazin-5-yl)amino)phenyl)-N-(4-methyl-3-(trifluoromethyl)phenyl)piperidine-3-carboxamide]
6 | 2 to 10 | Cc1ccc(NC(=O)[C@H]2CCCN(c3ncnc4ccccc34)[C@H]2c2ccc(N(C(=O)OCc3ccccc3)C3CCCC3)cc2)cc1C(F)(F)F [Compound 163, benzyl cyclopentyl(4-((2R,3S)-3-((4-methyl-3-(trifluoromethyl)phenyl)carbamoyl)-1-(quinazolin-4-yl)piperidin-2-yl)phenyl)carbamate]
7 | 2 to 10 | Cc1ccc(NC(=O)[C@H]2CCCN[C@H]2c2ccc(N(c3ncnc4cccnc34)C3CCCC3)cc2)cc1C(F)(F)F [Compound 176, (2R,3S)-2-(4-(cyclopentyl(pyrido[3,2-d]pyrimidin-4-yl)amino)phenyl)-N-(4-methyl-3-(trifluoromethyl)phenyl)piperidine-3-carboxamide]
8 | 2 to 10 | Cc1ccc(NC(=O)[C@H]2CCCN[C@H]2c2ccc(N(c3nccc4scnc34)C3CCCC3)cc2)cc1C(F)(F)F [Compound 169, (2R,3S)-2-(4-(cyclopentyl(thiazolo[4,5-c]pyridin-4-yl)amino)phenyl)-N-(4-methyl-3-(trifluoromethyl)phenyl)piperidine-3-carboxamide]
9 | > 10 | Cc1cc(C)cc(S(=O)(=O)N2CCC[C@H](C(=O)Nc3ccc(C)c(C(F)(F)F)c3)[C@@H]2c2ccc(NC3CCCC3)cc2)c1 [Compound 12, (2R,3S)-2-(4-(cyclopentylamino)phenyl)-1-((3,5-dimethylphenyl)sulfonyl)-N-(4-methyl-3-(trifluoromethyl)phenyl)piperidine-3-carboxamide]

Second part, the compound before the results:

Row | Compound | IC50 [µM]
10 | Cc1ccc(NC(=O)[C@H]2CCCN[C@H]2c2ccc(N(c3ncnc4ccccc34)C3CCCC3)cc2)cc1C(F)(F)F [Compound 177, (2R,3S)-2-(4-(cyclopentyl(quinazolin-4-yl)amino)phenyl)-N-(4-methyl-3-(trifluoromethyl)phenyl)piperidine-3-carboxamide] | 2 to 10
11 | Cc1ccc(NC(=O)[C@H]2CCCN(c3ncnc4cnccc34)[C@H]2c2ccc(N(C(=O)OCc3ccccc3)C3CCCC3)cc2)cc1C(F)(F)F [Compound 167, benzyl cyclopentyl(4-((2R,3S)-3-((4-methyl-3-(trifluoromethyl)phenyl)carbamoyl)-1-(pyrido[3,4-d]pyrimidin-4-yl)piperidin-2-yl)phenyl)carbamate] | 2 to 10
12 | Cc1ccc(NC(=O)[C@H]2CCCN[C@H]2c2ccc(N(c3nccc4ccsc34)C3CCCC3)cc2)cc1C(F)(F)F [Compound 173, (2R,3S)-2-(4-(cyclopentyl(thieno[2,3-c]pyridin-7-yl)amino)phenyl)-N-(4-methyl-3-(trifluoromethyl)phenyl)piperidine-3-carboxamide] | 2 to 10
13 | Cc1cccc(F)c1C(=O)N1C2CCC[C@@H]2C[C@H](C(=O)Nc2cnc(-n3nccn3)c(Cl)c2)[C@@H]1c1ccc(NC2CCCC2)cc1 (relative stereo) [Compound 75, cis-N-(5-chloro-6-(2H-1,2,3-triazol-2-yl)pyridin-3-yl)-2-(4-(cyclopentylamino)phenyl)-1-(2-fluoro-6-methylbenzoyl)octahydro-1H-cyclopenta[b]pyridine-3-carboxamide] | > 10
14 | Cc1ccc(NC(=O)[C@@H]2CCCN[C@H]2c2ccc(N(c3ncnc4cccnc34)C3CCCC3)cc2)cc1C(F)(F)F [Compound 174, (2R,3R)-2-(4-(cyclopentyl(pyrido[3,2-d]pyrimidin-4-yl)amino)phenyl)-N-(4-methyl-3-(trifluoromethyl)phenyl)piperidine-3-carboxamide] | 2 to 10
15 | COC(=O)c1cccc(C)c1S(=O)(=O)N1CCC[C@H](C(=O)Nc2ccc(C)c(C(F)(F)F)c2)[C@@H]1c1ccc(NC2CCCC2)cc1 [Compound 21, methyl 2-(((2R,3S)-2-(4-(cyclopentylamino)phenyl)-3-((4-methyl-3-(trifluoromethyl)phenyl)carbamoyl)piperidin-1-yl)sulfonyl)-3-methylbenzoate] | > 10
16 | Cc1ccc(NC[C@H]2CCCN(C(=O)c3c(C)cccc3F)[C@H]2c2ccc(NC3CCCC3)cc2)cc1C(F)(F)F [Compound 160, ((2R,3R)-2-(4-(cyclopentylamino)phenyl)-3-(((4-methyl-3-(trifluoromethyl)phenyl)amino)methyl)piperidin-1-yl)(2-fluoro-6-methylphenyl)methanone] | 2 to 10
17 | (cis-3-(6-chloro-1,2,3,4-tetrahydroisoquinoline-2-carbonyl)-2-(4-(cyclopentylamino)phenyl)octahydro-1H-cyclopenta[b]pyridin-1-yl)(2-fluoro-6-methylphenyl)methanone [Compound 72] | 2 to 10
18 | Cc1ccc(NC(=O)[C@@H]2CCCN(c3ccncn3)[C@H]2c2ccc(NC3CCCC3)cc2)cc1C(F)(F)F [Compound 3, (2R,3R)-2-(4-(cyclopentylamino)phenyl)-N-(4-methyl-3-(trifluoromethyl)phenyl)-1-(pyrimidin-4-yl)piperidine-3-carboxamide] | 2 to 10
19 | Cc1ccc(NC(=O)[C@H]2CCCN[C@H]2c2ccc(N(c3nccc4ccccc34)C3CCCC3)cc2)cc1C(F)(F)F [Compound 175, (2R,3S)-2-(4-(cyclopentyl(isoquinolin-1-yl)amino)phenyl)-N-(4-methyl-3-(trifluoromethyl)phenyl)piperidine-3-carboxamide] | 2 to 10
20 | Cc1ccc(NC(=O)C2C[C@@H]3CN(CC(F)(F)F)C[C@@H]3N(C(=O)c3c(C)cccc3F)C2c2ccc(NC3CCCC3)cc2)cc1C(F)(F)F (relative stereo) [Compound 206, cis-2-(4-(cyclopentylamino)phenyl)-1-(2-fluoro-6-methylbenzoyl)-N-(4-methyl-3-(trifluoromethyl)phenyl)-6-(2,2,2-trifluoroethyl)octahydro-1H-pyrrolo[3,4-b]pyridine-3-carboxamide] | 2 to 10
21 | Cc1cccc(F)c1C(=O)N1C(c2ccc(NC3CCOCC3)cc2)C(C(=O)Nc2cnn(C)c2)C[C@@H]2COC[C@@H]21 (relative stereo) [Compound 127, cis-1-(2-fluoro-6-methylbenzoyl)-N-(1-methyl-1H-pyrazol-4-yl)-2-(4-((tetrahydro-2H-pyran-4-yl)amino)phenyl)octahydrofuro[3,4-b]pyridine-3-carboxamide] | 2 to 10
22 | Cc1ccc(NC(=O)[C@H]2CCCN[C@H]2c2ccc(N(c3nncc4ccccc34)C3CCCC3)cc2)cc1C(F)(F)F [Compound 179, (2R,3S)-2-(4-(cyclopentyl(phthalazin-1-yl)amino)phenyl)-N-(4-methyl-3-(trifluoromethyl)phenyl)piperidine-3-carboxamide] | 2 to 10
23 | Cc1ccc(NC(=O)[C@@H]2CCC3CCc4ccccc4C(=O)N3[C@@H]2c2ccc(NC3CCCC3)cc2)cc1C(F)(F)F (stereo partly drawn) [Compound 45, (3R,4S)-4-(4-(cyclopentylamino)phenyl)-N-(4-methyl-3-(trifluoromethyl)phenyl)-6-oxo-1,2,3,4,6,11,12,12a-octahydrobenzo[e]pyrido[1,2-a]azepine-3-carboxamide] | 2 to 10
24 | Cc1cccc(F)c1C(=O)N1C(c2ccc(NC3CCN(C)CC3)cc2)C(C(=O)Nc2ccc3c(cnn3C)c2)C[C@@H]2CCC[C@@H]21 (relative stereo) [Compound 117, cis-1-(2-fluoro-6-methylbenzoyl)-N-(1-methyl-1H-indazol-5-yl)-2-(4-((1-methylpiperidin-4-yl)amino)phenyl)octahydro-1H-cyclopenta[b]pyridine-3-carboxamide] | 2 to 10
25 | Cc1ccc(NC(=O)[C@@H]2CCCN[C@H]2c2ccc(N(c3nccc4cccnc34)C3CCCC3)cc2)cc1C(F)(F)F [Compound 171, (2R,3R)-2-(4-(cyclopentyl(1,7-naphthyridin-8-yl)amino)phenyl)-N-(4-methyl-3-(trifluoromethyl)phenyl)piperidine-3-carboxamide] | 2 to 10
